The source of these data is article PMC12040169 (PLOS Biology, 2025).

Each structure is given as a SMILES string.

Broadly, the viability is a read-out of living cells in per cent, often relative to untreated cells.

This data set is described as follows: in vitro. The following applies: human, hela cells, % viability.
As to `COc1ccc(Oc2nccnc2N2CCN(Cc3ccc([N+](=O)[O-])cc3)CC2)cc1OC` [CBK083046T], the viability at 28.5 h, 10 µM is 86.4%.
For `COc1ccc(Oc2nccnc2N2CCN(Cc3ccc4c(c3)OCO4)CC2)cc1OC` [CBK083048T], the viability at 28.5 h, 10 µM is 106%.
For `COc1ccc(Oc2nccnc2N2CCN(CC3CCCCC3)CC2)cc1OC` [CBK083064T] the value was 98.6%; for `COc1ccc(Oc2nccnc2N2CCN(CCc3ccccn3)CC2)cc1OC` [CBK083067T], 93.2%.
Consider `Clc1ccc(COc2nccnc2N2CCN(Cc3ccc4c(c3)OCO4)CC2)cc1Cl` [CBK083078T], for which the viability at 28.5 h, 10 µM turned out to be 109%.
For `NC(=O)CN1CCN(c2nccnc2OCc2ccc(Cl)c(Cl)c2)CC1` [CBK083079T] the value was 111%; for `N#CCCCN1CCN(c2nccnc2OCc2ccc(Cl)c(Cl)c2)CC1` [CBK083086T], 94%; for `O=[N+]([O-])c1ccc(CN2CCC(Oc3nccnc3OCc3ccc(Cl)c(Cl)c3)CC2)cc1` [CBK083107T], 104%.
For `NC(=O)CN1CCC(Oc2nccnc2OCc2ccc(Cl)c(Cl)c2)CC1` [CBK083110] the value was 104%; for `Clc1ccc(COc2nccnc2OC2CCN(CC3CC3)CC2)cc1Cl` [CBK083123T], 92.4%.
Regarding `Clc1ccc(CN2CCN(c3nccnc3OCc3cccnc3)CC2)cc1Cl` [CBK083128T], the viability at 28.5 h, 10 µM was 105%.
On to `Clc1ccc(CN2CCN(c3nccnc3OCc3cccnc3)CC2)cc1` [CBK083130T], for which the viability at 28.5 h, 10 µM amounted to 99.6%.
Consider `FC(F)(F)c1ccc(CN2CCN(c3nccnc3OCc3cccnc3)CC2)cc1` [CBK083133T], for which the viability at 28.5 h, 10 µM came out at 101%.
With `CCN(CC)C(=O)CN1CCN(c2nccnc2OCc2cccnc2)CC1` [CBK083140], the viability at 28.5 h, 10 µM turned out to be 100%.
Consider `c1cncc(COc2nccnc2N2CCN(CCN3CCOCC3)CC2)c1` [CBK083141], for which the viability at 28.5 h, 10 µM was determined as 104%.
For `N#CCCCN1CCN(c2nccnc2OCc2cccnc2)CC1` [CBK083144] the value was 96.3%.
On to `Fc1ccccc1CN1CCC(Oc2nccnc2OCc2cccnc2)CC1` [CBK083157T], for which the viability at 28.5 h, 10 µM was 91.8%.
Consider `c1cncc(COc2nccnc2OC2CCN(Cc3cccnc3)CC2)c1` [CBK083158], for which the viability at 28.5 h, 10 µM worked out at 108%.
As for `CCN(CC)c1ccc(C(=O)CN2CCC(Oc3nccnc3OCc3cccnc3)CC2)cc1` [CBK083167T], the viability at 28.5 h, 10 µM came to 112%.
For `N#CCCCN1CCC(Oc2nccnc2OCc2cccnc2)CC1` [CBK083171] the value was 85.9%; for `COc1ccc(CCN2CCC(Oc3nccnc3OCc3cccnc3)CC2)cc1OC` [CBK083179T], 99%.
In the case of `c1cncc(COc2nccnc2OC2CCN(CCOc3cccnc3)CC2)c1` [CBK083181], the viability at 28.5 h, 10 µM was determined as 92.1%.
For `CCC1CCCCN1C(=O)c1ccccc1C(=O)OC` (stereo not shown) [CBK083196] the value was 92.4%.
For the compound `Cc1ccccc1C(NC(=O)C1CCN(C(=O)OCc2ccccc2)CC1)c1ccc(=O)[nH]c1` (stereo not shown) [CBK083200], the viability at 28.5 h, 10 µM amounted to 85.7%.
For `FC(F)(F)c1ccc(CN2CCCN(c3ccnc(OCC4COc5ccccc5O4)n3)CC2)cc1` (stereo not shown) [CBK083233T] the value was 93%.
For `NC(=O)CN1CCCN(c2ccnc(OCC3COc4ccccc4O3)n2)CC1` (stereo not shown) [CBK083236T] the value was 91.4%; for `COc1ccc(CN2CCCN(c3cc(OCC4COc5ccccc5O4)ncn3)CC2)cc1` (stereo not shown) [CBK083255T], 88%; for `CCN(CC)C(=O)CN1CCCN(c2cc(OCCN3C(=O)CCC3=O)ncn2)CC1` [CBK083266T], 102%.
For `FC(F)(F)c1ccc(CN2CCCN(c3cc(OC4CCCCC4)ncn3)CC2)cc1` [CBK083277T] the value was 112%; for `COc1ccc(CN2CCCN(c3cc(OC4CCCCC4)ncn3)CC2)cc1` [CBK083278T], 107%; for `Cc1cccc(C)c1NC(=O)CN1CCCN(c2cc(OCCN3C(=O)CCC3=O)ncn2)CC1` [CBK083313T], 97.9%.
For `Cc1cc(COc2cc(N3CCCN(Cc4ccc5c(c4)OCO5)CC3)ncn2)no1` [CBK083335T], the viability at 28.5 h, 10 µM came out at 95.7%.
As to `O=C1CCc2c(Cc3c(Cl)cccc3Cl)c(O)nn21` [CBK083470], the viability at 28.5 h, 10 µM was 91.3%.
In the case of `Brc1cncc2c1ccn2CCN1CCOCC1` [CBK083479], the viability at 28.5 h, 10 µM is 87.1%.
For `COc1ccc(C(=O)CCCN2CC3CCC(NC(=O)Nc4ccc(F)c(F)c4)CC3C2)cc1` (stereo not shown) [CBK083514T] the value was 109%; for `COc1ccc(C(=O)CCCN2CCc3c([nH]c4ccc(OC)cc34)C2)cc1` [CBK083515T], 101%.
In the case of `CC(C)(C)OC(=O)N1CCC2(CC1)NC(=O)c1cc(-c3cccnc3)ccc1O2` [CBK083517], the viability at 28.5 h, 10 µM was determined as 94.1%.
For `Cc1ccc(C(=O)N2CCC(CO)CC2)cc1C` [CBK083532] the value was 93.8%.
On to `COC(=O)N1CC2(CCCCC2NCCC(F)(F)F)c2ccccc21` (stereo not shown) [CBK083539T], for which the viability at 28.5 h, 10 µM was 90%.
For `COC(=O)N1CC2(CCCCC2NCC2CCCO2)c2ccccc21` (stereo not shown) [CBK083541T] the value was 95.2%; for `CC1=NN(C(=O)C2CC2)C(=O)C1Cc1ccc(F)cc1` (stereo not shown) [CBK083561], 89.9%; for `Nc1ccc(C(=O)Oc2ccc(Oc3ccccc3)cc2)cc1` [CBK083570], 90.5%.
Consider `COc1ccc(OC(=O)c2ccc3nonc3c2)cc1` [CBK083571], for which the viability at 28.5 h, 10 µM is 97.9%.
For `CCOc1ccc(OC(=O)c2cccc(C)c2)cc1` [CBK083575] the value was 101%.
For `COc1ccc(C(NC(=O)NNC(=O)Cc2ccc(Cl)cc2)c2ccccc2C)cn1` (stereo not shown) [CBK083660] the value was 96.1%; for `Cc1ccc(C(=O)NC2CCCCCC2)cc1C` [CBK083665], 86%; for `Cc1ccc(C(=O)N(C)C2CCCCC2)cc1C` [CBK083667], 137%.
In the case of `CC(C)(C)OC(=O)N1CCC2(CC1)NC(=O)c1cc(-c3cccc4ncccc34)ccc1O2` [CBK083674], the viability at 28.5 h, 10 µM is 109%.
For `Nc1c(-c2cc(F)cc(F)c2)cnc2ncccc12` [CBK083677] the value was 111%.
For `CSc1ccc(-c2cnc3ncccc3c2N)cc1` [CBK083680] the value was 101%.
For the compound `Nc1c(-c2cccc(C(F)(F)F)c2)cnc2ncccc12` [CBK083710], the viability at 28.5 h, 10 µM worked out at 105%.
For `CC(C)C(=O)Nc1c(-c2ccccc2)cnc2ncccc12` [CBK083713] the value was 94.8%.
For `CC(C)C(=O)Nc1ccc(-c2ccccc2)c2ccccc12` [CBK083731] the value was 101%.
For `CS(=O)(=O)Nc1ccc(-c2ccccc2)c2ccccc12` [CBK083741] the value was 93.2%.
With `CS(=O)(=O)Nc1ccc(-c2ccsc2)c2ccccc12` [CBK083742], the viability at 28.5 h, 10 µM was 98.7%.
For the compound `CS(=O)(=O)Nc1ccc(-c2cc(F)cc(F)c2)c2ccccc12` [CBK083743], the viability at 28.5 h, 10 µM worked out at 89.8%.
With `COc1cc(F)ccc1-c1ccc(NS(C)(=O)=O)c2ccccc12` [CBK083744], the viability at 28.5 h, 10 µM is 97.9%.
Consider `COc1ccc(C(C)C)cc1-c1ccc(NS(C)(=O)=O)c2ccccc12` [CBK083747], for which the viability at 28.5 h, 10 µM was determined as 97.8%.
For `CS(=O)(=O)Nc1ccc(-c2ccc3c(c2)CCO3)c2ccccc12` [CBK083753], the viability at 28.5 h, 10 µM worked out at 76.5%.
`CC(C)C(=O)Nc1ccc(-c2ccsc2)c2ccccc12` [CBK083758]: the viability at 28.5 h, 10 µM is 92.7%.
`COc1ccc(CN2CCCN(c3ccnc(OCCN4CCOCC4)n3)CC2)cc1` [CBK083800]: the viability at 28.5 h, 10 µM was 99.2%.
For `CCN1CCCN(c2ccnc(OCCN3CCOCC3)n2)CC1` [CBK083807] the value was 114%; for `OCCCN1CCCN(c2ccnc(OCCN3CCOCC3)n2)CC1` [CBK083808], 104%.
For `c1ccc(CCN2CCCN(c3ccnc(OCCN4CCOCC4)n3)CC2)cc1` [CBK083810] the value was 89.3%.
Turning to `CCOC(=O)CN1CCCN(c2ccnc(OC3CCCCC3)n2)CC1` [CBK083864], the viability at 28.5 h, 10 µM was 90.9%.
For `c1ccc(OCCN2CCCN(c3nccc(OCCN4CCOCC4)n3)CC2)cc1` [CBK083940] the value was 110%; for `FC(F)(F)c1ccc(CN2CCCN(c3nccc(OCc4ccc(Cl)c(Cl)c4)n3)CC2)cc1` [CBK083949], 94.5%.
Regarding `COc1ccc(CCN2CCCN(c3nccc(OCc4ccc(Cl)c(Cl)c4)n3)CC2)cc1OC` [CBK083965], the viability at 28.5 h, 10 µM was determined as 96.4%.
`Clc1ccc(CN2CCCN(c3nccc(OCC4COc5ccccc5O4)n3)CC2)cc1Cl` (stereo not shown) [CBK083967]: the viability at 28.5 h, 10 µM was determined as 97.3%.
For `c1cncc(CN2CCCN(c3nccc(OCC4COc5ccccc5O4)n3)CC2)c1` (stereo not shown) [CBK083969] the value was 112%.
`Cc1cccc(C)c1NC(=O)CN1CCCN(c2nccc(OCC3COc4ccccc4O3)n2)CC1` (stereo not shown) [CBK083974]: the viability at 28.5 h, 10 µM turned out to be 102%.
Turning to `CCOC(=O)CN1CCCN(c2nccc(OCC3COc4ccccc4O3)n2)CC1` (stereo not shown) [CBK083975], the viability at 28.5 h, 10 µM came to 100%.
For `N#CCCCN1CCCN(c2nccc(OCC3COc4ccccc4O3)n2)CC1` (stereo not shown) [CBK083977] the value was 90.2%.
For `c1ccc2c(c1)OCC(COc1ccnc(N3CCCN(CCc4ccc5ccccc5c4)CC3)n1)O2` (stereo not shown) [CBK083983] the value was 90.7%.
For `COc1ccnc(N2CCCN(CC(N)=O)CC2)n1` [CBK083992] the value was 87.2%.
Take `CS(=O)(=O)N1CC2(CCN(Cc3ccccc3F)CC2)c2ccccc21` [CBK084004]: the viability at 28.5 h, 10 µM was determined as 103%.
`CS(=O)(=O)N1CC2(CCN(Cc3ccc([N+](=O)[O-])cc3)CC2)c2ccccc21` [CBK084010]: the viability at 28.5 h, 10 µM was 104%.
For `CS(=O)(=O)N1CC2(CCN(CCc3c[nH]c4ccccc34)CC2)c2ccccc21` [CBK084017T] the value was 97.9%; for `CS(=O)(=O)N1CC2(CCN(CC3CCCCC3)CC2)c2ccccc21` [CBK084018], 96.8%.
